Reference: patent US11331294B2, “Benzoquinone derivative E3330 in combination with chemotherapeutic agents for the treatment of bladder cancer” (Indiana University Research and Technology Corporation, priority 2007, dated 2022)

Legend:
UC3 and T24 cells = assay: Incucyte caspase-3/7 apoptosis assay; format: cell-based, human; conditions: red fluorescence over time
Procedure: UC3 and T24 cells were plated in 96-well plates at 3,500 cell/well and allowed to attach overnight. Increasing amounts of APX2009 or APX2014 were added to each well along with 1 μM of the caspase reagent (Caspase-3/7 Red, Essen Bioscience) and then the cells were allowed to recover for 2 hours prior to beginning imaging with the Incucyte system (Essen Bioscience). Each well was imaged for phase contrast as well as red fluorescence every 2 hours for 96 hours. The Incucyte software generated movies of the cells following treatment as well as real-time imaging data with red fluorescence normalized to the percent confluency of the well.
To assay for caspase-3/7 mediated apoptosis, the increase in red fluorescence was analyzed over time following the addition of APX2009 and APX2014.

bladder cancer cells = assay: BrdU incorporation assay in cultured cells; format: cell-based; conditions: IC50 concentration, 24 hours; control 11.2%±0.84
Procedure: To determine the proliferation rate of cells in response to APE1/Ref-1 redox inhibitors, cells were grown in the culture conditions described above and treated with inhibitors as described above, in chamber slides. After 24 hours in culture with inhibitors or vehicle, all cells were treated with 3.1 μg/ml BrdU (in sterile PBS; 0.1%) for one hour. Cells were fixed and permeablized with 4% paraformaldehyde and stained for BrdU incorporation with the antibody and methodology described in the Roche BrdU labeling Kit, (Risch-Rotkreuz, Switzerland), using secondary antibodies. Positive cells were captured on a Leica 6000 fluorescent microscope and were quantified relative to Hoechst positive nuclei (total live cells).
To further characterize this effect, it was analyzed whether this reduced cell number was due to decreases in proliferation, increases in apoptosis, or both.

survivin and Cyclin D1 = assay: Western blot of survival and proliferation proteins in cells; format: cell-based, human; conditions: immunoblot
Procedure: FIGS. 36A-36H. […] In cytokine-induced T24 and UC3 cells NFκB-driven luciferase (FIG. 36A), STAT3-driven luciferase (FIG. 36B), and AP-1-driven luciferase (FIG. 36C) were quantified and normalized via Renilla following treatment with the corresponding cell growth-inhibitory IC50 concentrations. T24 cells were treated with APX2009 (8.5 μM) and APX2014 (6.5 μM), and UC3 cells were treated with APX2009 (6.1 μM) and APX2014 (4.6 μM) for 24 h. (*-p<0.05 APX treated vs vehicle, n=4). […] In the panels of FIGS. 36F & 36G, co-expression of survivin and APE1/Ref-1 was analyzed in superficial (FIG. 36F) and invasive human bladder tumors (FIG. 36G) in patients, and found nearly universal overlap of positivity in both in human samples. This was also true in cisplatin-refractory patients from the tissue microarray specimens (FIG. 36H).
Whole cell extracts were prepared using RIPA (radioimmunoprecipitation) buffer containing protein inhibitors (1:100 PMSF, 1:100 orthovanadate and 1:100 protease inhibitor). Total protein concentration was determined via Lowry or BCA assay. 10-50 μg/well of each lysate was separated by SDS-PAGE using a 12% SDS-polyacrylamide gel. Blots were blocked with 5% nonfat dry milk in 1×TBS for 1 h and incubated overnight with primary antibodies to either APE1/Ref-1 (1:1000 dilution, Novus, NB-100-116), survivin (1:1000, Cell Signaling), Cyclin D1 (1:500, Abcam), PARP-1 (1:1000, Cell Signaling) or GAPDH (1:5000, Cell Signaling). After blots were washed three-six times with TBS-Tween, blots were incubated with HRP-conjugated secondary mouse antibodies (1:5000, Pierce). After washing three-six times with TBS-Tween, blots were visualized by enhanced chemiluminescence (West Pico/West Femto, Pierce).
For further confirmation of a decrease in NFκB and STAT3 transcriptional activity, levels of survivin and Cyclin D1 were examined Both survivin and Cyclin D1 are known to be downstream targets of NFκB and STAT3. […] However, unlike APE1/Ref-1, survivin expression was primarily nuclear in both urothelial confined and invasive lesions.

[1] = system: T24 human bladder cancer cells; assay: T24 subcutaneous flank xenograft; format: in vivo, athymic nude mice; conditions: for tumor weight at sacrifice: ip every 12 hours, vehicle 1.0±0.2 g; for tumor growth compared to vehicle control / reduction in survivin expression in harvested tumors: ip twice daily
Procedure: […] T24 human bladder cancer cells were grown in conditions described above and harvested with 0.05% Trypsin, centrifuged, and resuspended in a 50:50 solution of Matrigel: RPMI medium. For each subcutaneous tumor, a 100 μl volume of this suspension was implanted in the hind flank of […]. […] BrdU was injected into the animals 2 hours prior to sacrifice and tumor tissues were harvested and split into either snap frozen tissues for protein harvest and molecular analysis or fixed in formalin and processed for histological analysis, and then analyzed for survivin, Cyclin D1 levels (immunofluorescence and immunoblotting) for target protein assessment and BrdU incorporation (immunofluorescence).
Prior to sacrifice, mice were injected with BrdU and BrdU incorporation was visualized and quantitated via red fluorescence.

[2] = system: rat dorsal root ganglion cells; assay: MTS cell viability assay of dorsal root ganglion cells; format: cell-based
Procedure: APX3330 in combination with chemotherapeutic Cisplatin. […] There was no effect of APX3330 (RN3-3) on the post-mitotic DRG cells, indicative of a non-toxic effect of APX3330 (RN3-3) on non-dividing cells.
DRG cell cultures and treatments were performed similar to previously published procedures using just APX3330 alone (DNA Repair Volume 4, Issue 3, 2 Mar. 2005, pp […]).

OVCAR-3 tumor cells = assay: MTS cell survival assay OVCAR-3; format: cell-based, human; conditions: about 24 or 72 h
Procedure: Decreased cancer cell survival. MCF-7 or OVCAR-3 cells (about 2-4,000) were aliquoted into each well of a 96-well plate in triplicate and allowed to adhere overnight. APX3330 (RN3-3) was added to the cultures. After about 24 or 72 h, about 0.05 mg/mL 3-(4-5-Dimethylthiazol-2-yl)-5-(3-carboxymethoxyphenyl)-2-(4-sulfophenyl)-2H-tetrazolium salt (MTS) reagent was added to each well and incubated at about 37° C. for about 4 h followed by absorbance measurement at 490 nm. The values were standardized to wells containing media alone. […] Similar effects can be seen in multiple myeloma, prostate, non-small cell lung carcinoma, colon, and glioma derived cells.

[3] = molecular target: redox function of Ape1/Ref-1 (Homo sapiens, UniProt P27695); assay: Selective inhibition of the redox function of Ape1/Ref-1
[4] = APX3330 50 mg/kg, APX2009 25 mg/kg
[5] = APX3330 50 mg/kg, APX2009 25 mg/kg, immunoblot

Sequence of redox function of Ape1/Ref-1 (P27695 whole entry): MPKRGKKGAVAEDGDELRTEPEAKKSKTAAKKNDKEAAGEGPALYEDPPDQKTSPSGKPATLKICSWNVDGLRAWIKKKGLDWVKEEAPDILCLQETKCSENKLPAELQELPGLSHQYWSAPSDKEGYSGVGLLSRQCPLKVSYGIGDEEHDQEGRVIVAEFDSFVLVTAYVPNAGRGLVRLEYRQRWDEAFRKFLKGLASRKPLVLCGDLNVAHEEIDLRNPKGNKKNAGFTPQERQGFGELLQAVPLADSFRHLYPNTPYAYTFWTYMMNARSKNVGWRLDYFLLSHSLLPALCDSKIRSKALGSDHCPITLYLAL

SMILES | caspase-3/7 activation (UC3 and T24 cells) | BrdU-positive cells (bladder cancer cells) | expression of c-Myc, Bcl-2, Bcl-XL (survivin and Cyclin D1) | expression of survivin and Cyclin D1 (survivin and Cyclin D1) | decrease in BrdU+ cells in tumors ([1]; APX2009 25 mg/kg ip twice daily) [%] | tumor weight at sacrifice [1, 4] [g] | tumor growth compared to vehicle control [1, 4] | reduction in survivin expression in harvested tumors [1, 5] [%] | ratio of cleaved caspase 3 to total caspase 3 in harvested tumors [1, 5] | survival of dorsal root ganglion cells ([2]; as high as about 120 μM, up to about 72 hours) | protection against cisplatin neurotoxicity ([2]; with cisplatin) | killing of OVCAR-3 tumor cells (OVCAR-3 tumor cells) | inhibition of the redox function of Ape1/Ref-1 [3]
CCC/C(=C\C1=C(OC)C(=O)c2ccccc2C1=O)C(=O)N(CC)CC [APX2009, [(2E)-2-[(3-methoxy-1,4-dioxo-1,4-dihydronaphthalen-2-yl)methylidene]-N,N-diethylpentanamide]] | dose-dependent increase in caspase activation | 6.9%±0.58 | No change in expression | significantly down-regulated | 60 | 0.37 ± 0.14 | significantly reduced tumor growth | 64 | increase in the ratio of cleaved caspase 3 |  |  |  | 
CCCCCCCCC/C(=C\C1=C(C)C(=O)C(OC)=C(OC)C1=O)C(=O)O [APX3330] |  | 7.8%±0.64 |  |  |  | 0.43 ± 0.10 | significantly reduced tumor growth | 42 |  | did not impair the survival | provided protection against the neuro-toxic effects of the chemotherapeutic cisplatin | dose dependently killed | selectively inhibited
